Here are results for 15 molecules from PubChem BioAssay (NCI).

Structures are written as SMILES. Several values for one entry are separate records, joined by “and”; a condition that tells them apart may be missing. Equal entries are not always repeated.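 Assay format: 96-well plates, 48-hour exposure. Abbreviation: GI50, concentration required for 50% inhibition of growth. TGI is the concentration that stops growth completely.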 Some results are limits rather than exact numbers.

Holding throughout (test): NCI tumour cell line growth inhibition, 48 h
In assay [1] the test system is M19-MEL melanoma.
The test system of assay [2] is MDA-MB-231 breast.
The subject of assay [3] is PC-3 prostate.
Assay [4] has as its system DMS 273 small cell lung.
Assay [5] concerns SNB-78 CNS.
The subject of assay [6] is KM20L2 colon.
In assay [7] the test system is MDA-MB-435.
Assay [8] concerns MCF7 breast.
For assay [9], the system named is BT-549 breast.
The subject of assay [10] is HS 578T breast.

Turning to `Nc1nc2c(ncn2C2OC(CO)C(O)C2O)c(=O)[nH]1` (centres undefined), the TGI in assay [1] was 206 µM; in assay [2], > 100 µM; in [3], > 100 µM; in [4], 159 µM; in assay [5], 300 µM; in [6] it was 214 µM. Besides, the TGI is > 100 µM in assay [7]; > 100 µM and 223 µM in assay [8]. For the same molecule, the GI50 in assay [2], in assay [3], in [7] and in assay [8] was > 100 µM each time.

With `Cc1nc(Nc2ccc(Cl)c(Cl)c2)sc1C(/C=C/c1ccc2c(c1)OCO2)=N/Nc1ccc([N+](=O)[O-])cc1[N+](=O)[O-]`, the TGI in assay [1] is > 100 µM; in [2] it was > 100 µM; in [9], > 100 µM; in [3], > 100 µM; in assay [4], > 100 µM; in [5], 25.9 µM. Moreover, the TGI in assay [6], in [7], in assay [10] and in [8] was > 100 µM in each case.

For `CCCC/C=C1/CCC(CN(C)C)C1=O` (centres undefined), the TGI in [1] came out at 3.05 µM; in assay [2] it was 9.03 µM; in assay [3], 27.2 µM; in assay [4], 5.76 µM; in assay [5] it was 5.21 µM; in assay [6] it was 5.59 µM. Besides, the TGI in assay [7] came out at 23.1 µM; in [10], 15 µM; in assay [8], 4.34 µM.

With `O=S1(=O)CS(=O)(=O)OCCCCCO1`, the TGI in assay [1], in assay [4], in assay [5] and in assay [6] was > 100 µM in each case.

With `COc1ccc(C2C(C(=O)O)=C(COC(C)=O)Oc3cc4c(cc32)OCO4)c(OC)c1` (centres undefined), the TGI in [1], in assay [4], in [5] and in assay [6] was > 100 µM each time.

As to `Nc1cccc(C(=O)/C=C/c2ccccc2O)c1`, the TGI in assay [1], in assay [4], in [5] and in [6] was > 100 µM each time.

As to `O=C1Cc2c([nH]c3ccccc23)-c2cc(Br)ccc2N1`, the TGI in assay [1], in assay [4], in assay [5] and in [6] was > 100 µM in each case.

With `O=C(Nc1c(Cl)cc([N+](=O)[O-])cc1Cl)C(=O)C(C(=O)c1ccncc1)C1OC(=O)c2ccccc21` (centres undefined), the TGI in [1], in assay [4], in assay [5] and in assay [6] was > 100 µM in each case.

In the case of `Cc1c(C(=O)/C=C/c2ccc3c(c2)OCO3)[n+](=O)c2ccccc2n1[O-]`, the TGI in assay [1] is > 100 µM; in assay [4] it was 52.6 µM; in assay [5], > 100 µM; in assay [6], 48.3 µM.

Turning to `CCOC(=O)c1cnc2c(ccc3ncccc32)c1OCC`, the TGI in [1], in [4], in assay [5] and in [6] was > 100 µM each time.

Regarding `NC(=O)N1N=C2c3ccccc3OC[C@H]2[C@@H]1c1ccccc1`, the TGI in assay [1] is > 100 µM; in assay [4] it was > 100 µM; in assay [5], > 95.3 µM; in assay [6] it was 49.8 µM.

For the molecule `COc1cc2ccc(CC(=O)O)cc2cc1OC`, the TGI in assay [1], in assay [4], in assay [5] and in assay [6] was > 100 µM each time.

For the molecule `CCOc1ccc(N=Nc2c(-c3ccccc3)nn(C(=O)CC(=O)Nc3ccccc3Cl)c2-c2ccccc2)cc1`, the TGI in assay [1], in [4], in assay [5] and in assay [6] was > 100 µM throughout.

As to `CCOC(=O)C(=O)Nc1nc2ccc(OC)cc2s1`, the TGI in assay [1], in [4], in [5] and in assay [6] was > 100 µM in each case.

With `COc1ccc(C2NC(c3ccc(OC)cc3)C(C)C(=O)C2C)cc1` (centres undefined), the TGI in [1], in assay [4], in assay [5] and in assay [6] was > 100 µM throughout.
